The text below walks through data of US20120122840A1, “COMPOUNDS AND THERAPEUTIC USES THEREOF” (Myrexis, Inc., priority 2009, published 2012).

Assay [1] deals with T1, Aurora A (Homo sapiens, UniProt O14965).
T1 sequence (O14965 1-403): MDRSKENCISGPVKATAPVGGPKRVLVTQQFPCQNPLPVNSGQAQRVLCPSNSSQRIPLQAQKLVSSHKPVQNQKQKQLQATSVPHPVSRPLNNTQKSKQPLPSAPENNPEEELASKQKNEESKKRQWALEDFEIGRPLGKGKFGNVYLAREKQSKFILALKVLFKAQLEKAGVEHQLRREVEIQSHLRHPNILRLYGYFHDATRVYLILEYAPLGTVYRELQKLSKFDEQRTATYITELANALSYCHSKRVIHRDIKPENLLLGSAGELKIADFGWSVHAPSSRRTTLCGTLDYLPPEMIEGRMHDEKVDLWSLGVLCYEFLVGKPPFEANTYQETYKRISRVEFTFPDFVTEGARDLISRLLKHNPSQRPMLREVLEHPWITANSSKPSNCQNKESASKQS
As to the kind of experiment: Direct target affinity purification (DTAP) from cell lysates. The assay is classed as binding. To be noted: compound coupled to Sepharose beads. From the text: (§1) Direct target affinity purification (DTAP) was used to investigate (1) the selectivity of compounds of the invention for TTK, relative to other kinases, and (2) the importance of a specific methyl substituent in providing that selectivity.
(§2) In preparation for DTAP studies, the two compounds depicted above were synthesized with an alkyl-amine linker to allow covalent coupling to epoxy-activated Sepharose 6B beads (GE Healthcare, Piscataway, N.J.). Sepharose beads were swollen and washed with water for 30 min followed by equilibration in coupling buffer (50% dimethylformamide, 50 mM Na2CO3). Beads were pelleted by centrifugation (15 sec at 2000×g) and the supernatant removed by aspiration. An equal volume of coupling buffer containing the linkered test compound was used to resuspend the beads. Compound concentrations in the coupling reaction ranged from 0.1 mM to 12.5 mM. The coupling reactions were incubated at 34° C. for 18 hrs on a rotator mixer. Ethanolamine was added to 1 M for the final 1 hr to quench the coupling reaction. Beads were washed extensively with binding buffer (1 M NaCl, 50 mM Hepes [pH 7.4], 1% Triton X-100, 1 mM EDTA and 1 mM dithiothreitol) to remove residual coupling reagents, and were then stored at 4° C.
(§3) Cellular proteins were prepared by mild sonication in lysis buffer (150 mM NaCl, 50 mM Hepes [pH 7.4], 1% Triton X-100, 1 mM EDTA and 2 mM dithiothrietol containing 1× Halt™ protease and phosphatase inhibitor cocktail [Thermo Fisher Scientific, Rockford, Ill.]). Lysates were centrifuged (20,000×g for 20 min) to remove debris, diluted to a protein concentration of ˜5 mg/ml, divided into aliquots, and stored at −80° C.
(§4) For DTAP reactions, cell lysates (˜0.5 ml per binding reaction) were thawed and the NaCl concentration adjusted to 1 M. Competitor compounds dissolved in DMSO (or a DMSO control) were then added to the lysate and incubated on ice for 5 min. The lysates were centrifuged at 20,000×g for 10 min and the cleared supernatant was transferred to a tube containing 50 μl of coupled beads. The binding reactions were incubated on a rotator mixer at 4° C. for 2 hrs, after which the beads were pelleted by centrifugation and the supernatant removed by aspiration. The beads were washed three times with 20 volumes of binding buffer, 2× with 20 volumes wash buffer (150 mM NaCl, 50 mM Hepes [pH 7.4], 1% Tween 20, 1 mM EDTA, 2 mM dithiothrietol) and finally twice with 10 volumes of 150 mM NaCl, 50 mM Hepes [pH 7.4].
(§5) During the final wash, an aliquot containing 10 μl of beads was transferred to a separate tube and resuspended with 15 μl of 2× SDS/PAGE loading buffer (Invitrogen Corporation, Carlsbad, Calif.) for 5 min at 90° C. The eluted proteins were resolved by electrophoresis on a NuPage 4-12% Bis-Tris Gel (Invitrogen Corporation, Carlsbad, Calif.) and visualized by staining with Ruby Red (Invitrogen Corporation, Carlsbad, Calif.). The remaining beads (40 μl) were processed for analysis by mass spectrometry.

The target in assay [2] is T2, TTK (Homo sapiens, UniProt P33981).
T2 sequence (P33981 1-857): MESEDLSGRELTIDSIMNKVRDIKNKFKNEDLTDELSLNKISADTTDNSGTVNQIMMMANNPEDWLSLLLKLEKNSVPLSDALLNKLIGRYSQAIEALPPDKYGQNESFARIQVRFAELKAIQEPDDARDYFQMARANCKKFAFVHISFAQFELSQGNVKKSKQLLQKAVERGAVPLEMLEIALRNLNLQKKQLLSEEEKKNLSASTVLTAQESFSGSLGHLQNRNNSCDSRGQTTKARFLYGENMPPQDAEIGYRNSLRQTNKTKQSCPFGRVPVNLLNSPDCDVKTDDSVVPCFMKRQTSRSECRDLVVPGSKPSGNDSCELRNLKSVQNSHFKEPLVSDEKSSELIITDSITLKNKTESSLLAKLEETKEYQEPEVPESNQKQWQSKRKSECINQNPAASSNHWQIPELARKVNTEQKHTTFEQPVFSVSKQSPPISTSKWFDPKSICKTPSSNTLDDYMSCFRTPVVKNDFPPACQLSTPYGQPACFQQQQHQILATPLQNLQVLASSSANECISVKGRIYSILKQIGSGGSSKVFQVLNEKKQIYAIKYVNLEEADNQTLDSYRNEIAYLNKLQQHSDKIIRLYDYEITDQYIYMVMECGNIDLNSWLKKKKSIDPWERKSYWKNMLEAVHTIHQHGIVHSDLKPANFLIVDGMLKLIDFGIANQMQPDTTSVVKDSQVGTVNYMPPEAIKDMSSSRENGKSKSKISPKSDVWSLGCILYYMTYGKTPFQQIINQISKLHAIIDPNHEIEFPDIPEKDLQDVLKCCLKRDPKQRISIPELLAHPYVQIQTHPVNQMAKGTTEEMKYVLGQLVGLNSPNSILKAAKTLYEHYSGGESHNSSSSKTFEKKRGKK
The description is as above. Format: binding. The following applies: compound coupled to Sepharose beads.
From the text: as §1, §2, §3, §4, §5

Assay [3] deals with T3, FER (Homo sapiens, UniProt P16591). Described as above. The assay is classed as binding. The following applies: compound coupled to Sepharose beads.
From the text: as §1, §2, §3, §4, §5

Assay [4] concerns the target T4, JAK1 (Homo sapiens, UniProt P23458).
T4 construct: Cellular proteins were prepared by mild sonication in lysis buffer; endogenous in cells
The assay is described as above. Format: binding. To be noted: compound coupled to Sepharose beads.
From the text: as §1, §2, §3, §4, §5

Assay [5] deals with JNK (Homo sapiens, UniProt P45983). Described as above. The assay is classed as binding. The following applies: compound coupled to Sepharose beads.
From the text: as §1, §2, §3, §4, §5

Assay [6] deals with T3, FER. Briefly: In vitro binding assays.

T3 sequence (P16591 whole entry, species assumed): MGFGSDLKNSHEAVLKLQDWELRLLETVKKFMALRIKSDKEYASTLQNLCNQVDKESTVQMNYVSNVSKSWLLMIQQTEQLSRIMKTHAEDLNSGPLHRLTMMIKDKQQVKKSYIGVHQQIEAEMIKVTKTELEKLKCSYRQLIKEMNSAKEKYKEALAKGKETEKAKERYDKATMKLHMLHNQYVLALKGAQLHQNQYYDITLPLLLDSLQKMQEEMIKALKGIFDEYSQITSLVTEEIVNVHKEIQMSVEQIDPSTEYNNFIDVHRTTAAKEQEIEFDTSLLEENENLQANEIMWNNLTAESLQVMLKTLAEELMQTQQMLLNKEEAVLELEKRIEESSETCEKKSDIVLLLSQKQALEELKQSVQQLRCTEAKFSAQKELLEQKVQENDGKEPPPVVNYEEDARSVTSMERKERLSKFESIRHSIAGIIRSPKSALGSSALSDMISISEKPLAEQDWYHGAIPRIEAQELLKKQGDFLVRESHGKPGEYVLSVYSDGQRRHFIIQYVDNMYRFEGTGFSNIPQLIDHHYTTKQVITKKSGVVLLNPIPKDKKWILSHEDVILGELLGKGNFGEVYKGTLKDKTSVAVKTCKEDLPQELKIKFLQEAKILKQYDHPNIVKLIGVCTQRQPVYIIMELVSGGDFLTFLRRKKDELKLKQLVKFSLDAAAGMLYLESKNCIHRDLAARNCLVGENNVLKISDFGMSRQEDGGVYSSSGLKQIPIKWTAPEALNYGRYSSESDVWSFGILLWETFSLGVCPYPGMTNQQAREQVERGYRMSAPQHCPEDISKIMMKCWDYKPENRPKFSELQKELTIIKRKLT
T4 sequence (P23458 whole entry, species assumed): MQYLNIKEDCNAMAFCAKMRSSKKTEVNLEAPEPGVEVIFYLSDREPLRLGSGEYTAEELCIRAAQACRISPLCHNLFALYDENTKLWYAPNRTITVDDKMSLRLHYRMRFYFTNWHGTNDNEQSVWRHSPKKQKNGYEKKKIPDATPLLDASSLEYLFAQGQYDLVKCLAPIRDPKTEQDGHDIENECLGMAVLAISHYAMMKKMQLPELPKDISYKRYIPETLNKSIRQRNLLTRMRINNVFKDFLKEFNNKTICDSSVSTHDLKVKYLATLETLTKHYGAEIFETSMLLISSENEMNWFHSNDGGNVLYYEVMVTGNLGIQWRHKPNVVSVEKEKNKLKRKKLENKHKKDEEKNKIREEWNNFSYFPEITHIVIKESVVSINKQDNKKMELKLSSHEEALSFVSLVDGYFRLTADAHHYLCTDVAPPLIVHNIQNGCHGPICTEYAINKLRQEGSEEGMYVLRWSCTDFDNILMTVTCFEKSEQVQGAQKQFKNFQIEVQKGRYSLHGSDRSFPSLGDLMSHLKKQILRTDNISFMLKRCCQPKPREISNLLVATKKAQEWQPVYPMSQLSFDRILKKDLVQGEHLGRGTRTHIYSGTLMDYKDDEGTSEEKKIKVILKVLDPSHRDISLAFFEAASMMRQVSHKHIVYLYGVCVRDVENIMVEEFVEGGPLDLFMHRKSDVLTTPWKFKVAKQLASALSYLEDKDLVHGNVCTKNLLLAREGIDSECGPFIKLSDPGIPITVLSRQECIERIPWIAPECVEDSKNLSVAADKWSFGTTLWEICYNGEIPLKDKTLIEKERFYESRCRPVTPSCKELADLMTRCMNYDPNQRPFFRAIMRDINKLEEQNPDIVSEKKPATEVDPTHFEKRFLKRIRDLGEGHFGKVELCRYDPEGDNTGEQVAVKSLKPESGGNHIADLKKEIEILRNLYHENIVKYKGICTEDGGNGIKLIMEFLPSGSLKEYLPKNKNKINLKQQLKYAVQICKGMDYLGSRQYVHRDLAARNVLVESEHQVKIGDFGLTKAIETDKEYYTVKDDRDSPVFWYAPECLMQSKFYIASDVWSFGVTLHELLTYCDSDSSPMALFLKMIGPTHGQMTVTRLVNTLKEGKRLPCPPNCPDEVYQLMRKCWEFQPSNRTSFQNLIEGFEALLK
JNK, sequence (P45983 whole entry): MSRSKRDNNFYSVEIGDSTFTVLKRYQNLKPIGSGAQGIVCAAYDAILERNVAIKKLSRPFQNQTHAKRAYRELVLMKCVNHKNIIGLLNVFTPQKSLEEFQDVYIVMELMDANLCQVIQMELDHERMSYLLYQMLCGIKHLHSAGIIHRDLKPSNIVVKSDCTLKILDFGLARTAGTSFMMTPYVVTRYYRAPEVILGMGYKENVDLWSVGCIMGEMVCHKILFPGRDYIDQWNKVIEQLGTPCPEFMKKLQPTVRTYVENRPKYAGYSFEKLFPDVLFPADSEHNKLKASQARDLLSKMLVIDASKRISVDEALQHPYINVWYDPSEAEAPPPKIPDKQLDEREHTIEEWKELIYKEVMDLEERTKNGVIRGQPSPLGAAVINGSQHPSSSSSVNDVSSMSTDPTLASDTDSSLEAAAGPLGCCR

As a reminder, the IC50 is the point on the concentration scale where inhibition reaches its midpoint. As to `NCCCOc1ccc(Nc2nc(NC3CCCCC3)c3nc[nH]c3n2)cc1` [N2-[4-(3-aminopropoxy)phenyl]-N-6-cyclohexyl-9H-purine-2,6-diamine], in assay [1], the “binding of Aurora A from cell lysates to bead-coupled compound” value is recorded as “found to bind”. Moreover, in assay [2], the “binding of TTK from cellular lysates to bead-coupled compound” value is recorded as “high affinity”. The “binding of FER from cell lysates to bead-coupled compound” value in assay [3] is on record as “found to bind”. In assay [4], the “binding of JAK1 from cell lysates to bead-coupled compound” value is given as “found to bind”. Moreover, the “binding of JNK from cell lysates to bead-coupled compound” value in assay [5] is “found to bind”. The IC50 in assay [6] amounted to 15 nM.
